Measured values reported in publication PMC9334274, “A unique class of Zn^2+-binding serine-based PBPs underlies cephalosporin resistance and sporogenesis in Clostridioides difficile” (Nature Communications, 2022).
In brackets after ≈: the same amount, converted by molar mass. Several values for one entry are separate records, joined by “and”; a condition that tells them apart may be missing. Identical values can stand only once. Entries after “also recorded” stand apart in the source; their conditions may differ. Like-named read-outs stand apart in the source and are kept apart here.

Assays:
C. difficile PBP3 = type: binding, Clostridioides difficile R20291; conditions: for PBP3 % inhibiton: 25 µM
Ldt2 = test: Nitrocefin inhibition assay, Ldt2; type: biochemical, Clostridioides difficile R20291; conditions: for Ldt2 % inhibiton: β-lactam at 25 uM, nitrocefin hydrolysis, two independent experiments, individual values; for Nitrcoefin hydrolysis vs inhibitor (reaction curve reading): Idt2, representative curve
Protocol: Reactions were performed in a 96-well polystyrene plate with a final volume of 60 μL at 37 °C in 20 mM Tris pH 7, 200 mM NaCl. […] Protein was then added to the well for a final concentration of 1 µM and incubated for 15 min at 37 °C. 1 µL of nitrocefin (Millipore Sigma) was then added to each well for a final concentration of 20 µM, and reaction progress was monitored using a BioTek Cytation 5 plate reader (BioTek Instruments) at 488 nm and 37 °C for 1 h. Reaction rates were normalized to the control (no inhibitor) for % inhibition values. Assays were performed in duplicate and mean % inhibition values was calculated.

[1] = test system: C. difficile strain R20291; test: Minimum inhibitory concentration (MIC) determination; conditions: for MIC: Clostridioides difficile, R20291, 24 h
Ldt3 = type: biochemical, Clostridioides difficile R20291; conditions: for Ldt3 % inhibiton / inhibition of Ldt3 (in words): 25 µM

## CC1(C)S[C@@H]2[C@H](NC(=O)[C@H](N)c3ccccc3)C(=O)N2[C@H]1C(=O)O [ampicillin]
C. difficile PBP3
  PBP3 % inhibiton: 92.7496% and 89.9467% and 91.5944%
Ldt2; listed as AMP, 25 µM
  Ldt2 % inhibiton: 1.643% and 4.064%
[1]
  MIC (X): 2
  MIC: 2 µg/mL (≈ 5.72 µM)

## C[C@H]1[C@H](NC(=O)/C(=N\OC(C)(C)C(=O)O)c2csc(N)n2)C(=O)N1S(=O)(=O)O [aztreonam]
[1]
  MIC: 256 µg/mL (≈ 588 µM)

## CO/N=C(\C(=O)N[C@@H]1C(=O)N2C(C(=O)O)=C(/C=C\c3scnc3C)CS[C@H]12)c1csc(N)n1 [cefditoren]
C. difficile PBP3
  PBP3 % inhibiton: 82.5587% and 73.9018% and 78.609%
Ldt2; listed as CDN, 25 µM
  Ldt2 % inhibiton: 13.9657% and 18.7883%
Ldt3
  Ldt3 % inhibiton: 72.482% and 72.4793%
  inhibition of Ldt3 (in words): best
[1]
  MIC: 16 µg/mL (≈ 31.6 µM)

## CO/N=C(\C(=O)N[C@@H]1C(=O)N2C(C(=O)O)=C(COC(C)=O)CS[C@H]12)c1csc(N)n1 [cefotaxime]
C. difficile PBP3
  PBP3 % inhibiton: 100.738% and 94.6733% and 99.7428%
Ldt2; listed as CTX, 25 µM
  Ldt2 % inhibiton: 12.8454% and 16.2577%
Ldt3
  Ldt3 % inhibiton: 7.194% and 11.4876%
[1]
  MIC (X): 256
  MIC: 256 µg/mL (≈ 562 µM)

## CC(C)(O/N=C(\C(=O)N[C@@H]1C(=O)N2C(C(=O)[O-])=C(C[n+]3ccccc3)CS[C@H]12)c1csc(N)n1)C(=O)O [ceftazidime]
C. difficile PBP3
  PBP3 % inhibiton: 100% and 96.9383%
[1]
  MIC: 256 µg/mL (≈ 468 µM)

## Nc1nc(/C(=N/O)C(=O)N[C@@H]2C(=O)N3C(C(=O)O)=C(/C=C4\CCN([C@@H]5CCNC5)C4=O)CS[C@H]23)ns1 [ceftobiprole]
C. difficile PBP3
  PBP3 % inhibiton: 100% and 96.748%
Ldt2; listed as BPR, 25 µM
  Ldt2 % inhibiton: 0% and 4.7546%
Ldt3
  Ldt3 % inhibiton: 8.0036% and 4.298%
[1]
  MIC: 2 µg/mL (≈ 3.74 µM)

## CO/N=C(\C(=O)N[C@@H]1C(=O)N2C(C(=O)O)=C(CSc3nc(=O)c(=O)[nH]n3C)CS[C@H]12)c1csc(N)n1 [ceftriaxone]
C. difficile PBP3
  PBP3 % inhibiton: 101.93% and 95.7776% and 100%
[1]
  MIC: 32 µg/mL (≈ 57.7 µM)

## CO/N=C(\C(=O)N[C@@H]1C(=O)N2C(C(=O)O)=C(COC(N)=O)CS[C@H]12)c1ccco1 [cefuroxime]
C. difficile PBP3
  PBP3 % inhibiton: 99.6269% and 93.7981% and 97.4091%
[1]
  MIC: 128 µg/mL (≈ 302 µM)

## CC1=C(C(=O)O)N2C(=O)[C@@H](NC(=O)[C@H](N)c3ccccc3)[C@H]2SC1 [cephalexin]
C. difficile PBP3
  inhibition of PBP3 (in words): little to no biochemical inhibition; also recorded: no detectable inhibition
Ldt2; 25 µM
  inhibition of Ldt2 (in words): failing to inhibit
Ldt2
  Ldt2 % inhibiton: 0%
Ldt3
  Ldt3 % inhibiton: 0%
  inhibition of Ldt3 (in words): failing to inhibit
[1]
  MIC: 4 µg/mL (≈ 11.5 µM)

## CC(=O)OCC1=C(C(=O)O)N2C(=O)[C@@H](NC(=O)[C@H](N)c3ccccc3)[C@H]2SC1 [cephaloglycin]
C. difficile PBP3
  PBP3 % inhibiton: 95.4184% and 89.9822% and 93.12%
Ldt2
  Ldt2 % inhibiton: 0%
Ldt3
  Ldt3 % inhibiton: 9.353% and 13.9669%
[1]
  MIC: 256 µg/mL (≈ 631 µM)

## CC(=O)OCC1=C(C(=O)O)N2C(=O)[C@@H](NC(=O)Cc3cccs3)[C@H]2SC1 [cephalothin]
C. difficile PBP3
  PBP3 % inhibiton: 97.9928% and 94.8412% and 96.842%
Ldt2
  Ldt2 % inhibiton: 0%
Ldt3
  Ldt3 % inhibiton: 13.1295% and 19.9174%
[1]
  MIC: 64 µg/mL (≈ 161 µM)

## Cc1onc(-c2ccccc2Cl)c1C(=O)N[C@@H]1C(=O)N2[C@@H]1SC(C)(C)[C@@H]2C(=O)O [cloxacillin]
C. difficile PBP3
  PBP3 % inhibiton: 82.7754% and 83.7053% and 84.4216%
Ldt2; time 0 s
  Nitrcoefin hydrolysis vs inhibitor (reaction curve reading): 0.044
Ldt2; time 300 s
  Nitrcoefin hydrolysis vs inhibitor (reaction curve reading): 0.046
Ldt2; time 600 s
  Nitrcoefin hydrolysis vs inhibitor (reaction curve reading): 0.048
Ldt2; time 900 s
  Nitrcoefin hydrolysis vs inhibitor (reaction curve reading): 0.05
Ldt2; time 1200 s
  Nitrcoefin hydrolysis vs inhibitor (reaction curve reading): 0.051
Ldt2; time 1500 s
  Nitrcoefin hydrolysis vs inhibitor (reaction curve reading): 0.053
Ldt2; time 1800 s
  Nitrcoefin hydrolysis vs inhibitor (reaction curve reading): 0.054
Ldt2; time 2100 s
  Nitrcoefin hydrolysis vs inhibitor (reaction curve reading): 0.056
Ldt2; time 2400 s
  Nitrcoefin hydrolysis vs inhibitor (reaction curve reading): 0.057
Ldt2; listed as ClX, 25 µM
  Ldt2 % inhibiton: 15.534% and 20.6288%
Ldt3
  Ldt3 % inhibiton: 89.2086% and 94.2975%
  inhibition of Ldt3 (in words): best
Ldt3; time 0 s
  Nitrcoefin hydrolysis vs inhibitor (reaction curve reading): 0.044
Ldt3; time 300 s
  Nitrcoefin hydrolysis vs inhibitor (reaction curve reading): 0.045
Ldt3; time 600 s
  Nitrcoefin hydrolysis vs inhibitor (reaction curve reading): 0.045
Ldt3; time 900 s
  Nitrcoefin hydrolysis vs inhibitor (reaction curve reading): 0.046
Ldt3; time 1200 s
  Nitrcoefin hydrolysis vs inhibitor (reaction curve reading): 0.046
Ldt3; time 1500 s
  Nitrcoefin hydrolysis vs inhibitor (reaction curve reading): 0.046
Ldt3; time 1800 s
  Nitrcoefin hydrolysis vs inhibitor (reaction curve reading): 0.046
Ldt3; time 2100 s
  Nitrcoefin hydrolysis vs inhibitor (reaction curve reading): 0.046
Ldt3; time 2400 s
  Nitrcoefin hydrolysis vs inhibitor (reaction curve reading): 0.046
[1]
  MIC: 16 µg/mL (≈ 36.7 µM)

## C[C@@H](O)[C@H]1C(=O)N2C(C(=O)O)=C(S[C@@H]3CN[C@H](CNS(N)(=O)=O)C3)[C@H](C)[C@H]12 [doripenem]
C. difficile PBP3
  PBP3 % inhibiton: 95.9747% and 95.7759% and 97.3818%
Ldt2; 25 µM
  inhibition of Ldt2 (in words): best inhibitors of Ldt2
Ldt2; time 0 s
  Nitrcoefin hydrolysis vs inhibitor (reaction curve reading): 0.043
Ldt2; time 300 s
  Nitrcoefin hydrolysis vs inhibitor (reaction curve reading): 0.044
Ldt2; time 600 s
  Nitrcoefin hydrolysis vs inhibitor (reaction curve reading): 0.045
Ldt2; time 900 s
  Nitrcoefin hydrolysis vs inhibitor (reaction curve reading): 0.045
Ldt2; time 1200 s
  Nitrcoefin hydrolysis vs inhibitor (reaction curve reading): 0.045
Ldt2; time 1500 s
  Nitrcoefin hydrolysis vs inhibitor (reaction curve reading): 0.045
Ldt2; time 1800 s
  Nitrcoefin hydrolysis vs inhibitor (reaction curve reading): 0.046
Ldt2; time 2100 s
  Nitrcoefin hydrolysis vs inhibitor (reaction curve reading): 0.046
Ldt2; time 2400 s
  Nitrcoefin hydrolysis vs inhibitor (reaction curve reading): 0.047
Ldt2; listed as DOR, 25 µM
  Ldt2 % inhibiton: 92.8305% and 93.0982%
Ldt3
  Ldt3 % inhibiton: 49.0108% and 45.9504%
Ldt3; time 0 s
  Nitrcoefin hydrolysis vs inhibitor (reaction curve reading): 0.045
Ldt3; time 300 s
  Nitrcoefin hydrolysis vs inhibitor (reaction curve reading): 0.046
Ldt3; time 600 s
  Nitrcoefin hydrolysis vs inhibitor (reaction curve reading): 0.048
Ldt3; time 900 s
  Nitrcoefin hydrolysis vs inhibitor (reaction curve reading): 0.049
Ldt3; time 1200 s
  Nitrcoefin hydrolysis vs inhibitor (reaction curve reading): 0.05
Ldt3; time 1500 s
  Nitrcoefin hydrolysis vs inhibitor (reaction curve reading): 0.051
Ldt3; time 1800 s
  Nitrcoefin hydrolysis vs inhibitor (reaction curve reading): 0.052
Ldt3; time 2100 s
  Nitrcoefin hydrolysis vs inhibitor (reaction curve reading): 0.052
Ldt3; time 2400 s
  Nitrcoefin hydrolysis vs inhibitor (reaction curve reading): 0.053
[1]
  MIC: 1 µg/mL (≈ 2.38 µM)

## C[C@@H](O)[C@H]1C(=O)N2C(C(=O)O)=C(SCCN=CN)C[C@H]12 [imipenem]
C. difficile PBP3
  PBP3 % inhibiton: 83.9601% and 87.3785% and 88.7659%
Ldt2; listed as IMI, 25 µM
  Ldt2 % inhibiton: 15.7605% and 16.7178%
[1]
  MIC: 128 µg/mL (≈ 428 µM)

## C[C@@H](O)[C@H]1C(=O)N2C(C(=O)O)=C(S[C@@H]3CN[C@H](C(=O)N(C)C)C3)[C@H](C)[C@H]12 [meropenem]
C. difficile PBP3
  PBP3 % inhibiton: 95.105% and 95.5466% and 97.2164%
Ldt2; 25 µM
  inhibition of Ldt2 (in words): best inhibitors of Ldt2
Ldt2; listed as MEM, 25 µM
  Ldt2 % inhibiton: 88.3495% and 88.0368%
Ldt3
  Ldt3 % inhibiton: 25.5396% and 27.8512%
[1]
  MIC: 4 µg/mL (≈ 10.4 µM)

## COc1cccc(OC)c1C(=O)N[C@@H]1C(=O)N2[C@@H]1SC(C)(C)[C@@H]2C(=O)O [methicillin]
C. difficile PBP3
  PBP3 % inhibiton: 92.4606% and 92.3713% and 94.0819%
[1]
  MIC: 8 µg/mL (≈ 21 µM)

## CC1(C)S[C@@H]2[C@H](NC(=O)Cc3ccccc3)C(=O)N2[C@H]1C(=O)O [penicillin G]
C. difficile PBP3
  PBP3 % inhibiton: 94.9098% and 94.1115% and 95.4645%
Ldt2; listed as EM, 25 µM
  Ldt2 % inhibiton: 2.091% and 5.675%
Ldt3
  Ldt3 % inhibiton: 58.9928% and 66.7769%
[1]
  MIC (X): 1
  MIC: 1 µg/mL (≈ 2.99 µM)

## CCN1CCN(C(=O)N[C@@H](C(=O)N[C@@H]2C(=O)N3[C@@H]2SC(C)(C)[C@@H]3C(=O)O)c2ccccc2)C(=O)C1=O [piperacillin]
C. difficile PBP3
  PBP3 % inhibiton: 92.03% and 94.7239% and 96.6236%
Ldt2; 25 µM
  inhibition of Ldt2 (in words): best inhibitors of Ldt2
Ldt2; listed as PIP, 25 µM
  Ldt2 % inhibiton: 57.879% and 59.7393%
Ldt3
  Ldt3 % inhibiton: 51.7086% and 57.3554%
[1]
  MIC: 16 µg/mL (≈ 30.9 µM)
